Measurements as given in patent US20210221848A1, “POLYMYXIN DERIVATIVES AND THEIR USE IN COMBINATION THERAPY TOGETHER WITH DIFFERENT ANTIBIOTICS” (priority 2014, published 2021).
Like-named read-outs stand apart in the source and are kept apart here.

Legend:
[1] = test system: P. aeruginosa strains with elevated MICs to Polymyxin B; test: MIC against strains with elevated MICs to Polymyxin B; assay type: cell-based, Pseudomonas aeruginosa; settings: Table 6D; for MIC P. aeruginosa 066: strain 066, elevated MIC to Polymyxin B; for MIC P. aeruginosa 067: strain 067, elevated MIC to Polymyxin B; for MIC P. aeruginosa 065: strain 065, elevated MIC to Polymyxin B
Method in brief: (§1)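 Inoculum was a direct suspension of colonies from an 18-24 hour Mueller-Hinton agar plate, adjusted to the 0.5 McFarland standard. Duplicate assays; the lower value was reported when duplicates differed by less than 2-fold, otherwise the run was invalid. Repeat-tested compounds give the modal MIC.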

[2] = test system: E. coli strains with elevated MICs to Polymyxin B; test: MIC against strains with elevated MICs to Polymyxin B; assay type: cell-based, Escherichia coli; settings: Table 6D; for MIC E. coli 059: strain 059, elevated MIC to Polymyxin B; for MIC E. coli 060: strain 060, elevated MIC to Polymyxin B; for MIC E. coli 061: strain 061, elevated MIC to Polymyxin B; for MIC E. coli 058: strain 058, elevated MIC to Polymyxin B
Method in brief: as §1

[3] = test system: K. pneumoniae strains with elevated MICs to Polymyxin B; test: as above; assay type: cell-based, Klebsiella pneumoniae; settings: Table 6D; for MIC K. pneumoniae 062: strain 062, elevated MIC to Polymyxin B; for MIC K. pneumoniae 063: strain 063, elevated MIC to Polymyxin B; for MIC K. pneumoniae 064: strain 064, elevated MIC to Polymyxin B; for MIC K. pneumoniae 655: strain 655, elevated MIC to Polymyxin B
Method in brief: as §1

[4] = test system: A. baumanii strains with elevated MICs to Polymyxin B; test: MIC against strains with elevated MICs to Polymyxin B; assay type: cell-based, Acinetobacter baumannii; settings: Table 6D; for MIC A. baumannii 053: strain 053, elevated MIC to Polymyxin B; for MIC A. baumannii 056: strain 056, elevated MIC to Polymyxin B; for MIC A. baumannii 068: strain 068, elevated MIC to Polymyxin B; for MIC A. baumannii 070: strain 070, elevated MIC to Polymyxin B
Method in brief: as §1

[5] = absence of a second agent, Table 6B

Substance	MIC P. aeruginosa 066 [1]	MIC P. aeruginosa 067 [1]	MIC E. coli 059 [2]	MIC E. coli 060 [2]	MIC E. coli 061 [2]	MIC K. pneumoniae 062 [3]	MIC K. pneumoniae 063 [3]	MIC K. pneumoniae 064 [3]	MIC K. pneumoniae 655 [3]	MIC A. baumannii 053 [4]	MIC A. baumannii 056 [4]	MIC A. baumannii 068 [4]	MIC A. baumannii 070 [4]	MIC P. aeruginosa 065 [1]	MIC E. coli 058 [2]	MIC, K. pneumoniae ATCC 4352 (K. pneumoniae; sole activity, Table 6C)	MIC, A. baumannii ATCC BAA-747 (A. baumannii; sole activity, Table 6C)	MIC, A. baumannii NCTC 13424 (A. baumannii; sole activity, Table 6C)	MIC, E. coli ATCC 25922 (E. coli; sole activity, Table 6C)	MIC, P. aeruginosa ATCC 27853 (P. aeruginosa; sole activity, Table 6C)	also measured
(trans-5- octylpiperidine)-3- carbonyl polymyxin B nonapeptide [Example D22]	>64 micrograms/mL	>64 micrograms/mL	8 micrograms/mL	16 micrograms/mL	64 micrograms/mL	>64 micrograms/mL	>64 micrograms/mL	>64 micrograms/mL	>256 micrograms/mL	>64 micrograms/mL	>64 micrograms/mL	4 micrograms/mL	4 micrograms/mL								MIC, K. pneumoniae ATCC BAA-2146 (K. pneumoniae; [5]): >8 micrograms/mL; MIC, A. baumannii ATCC BAA-747 (A. baumannii; [5]): >8 micrograms/mL; MIC, A. baumannii NCTC 13424 (A. baumannii; [5]): >8 micrograms/mL; MIC, E. coli ATCC 25922 (E. coli; [5]): 4 micrograms/mL; MIC, E. coli NCTC 13441 (E. coli; [5]): 4 micrograms/mL; MIC, P. aeruginosa ATCC 27853 (P. aeruginosa; [5]): 2 micrograms/mL; MIC, P. aeruginosa CCUG 59347 (P. aeruginosa; [5]): 1 micrograms/mL
(trans-5- octylpiperidine)-3- carbonyl polymyxin B nonapeptide [Example D23]	1 micrograms/mL	8 micrograms/mL	0.25 micrograms/mL	1 micrograms/mL	1 micrograms/mL	4 micrograms/mL	4 micrograms/mL	1 micrograms/mL	4 micrograms/mL	2 micrograms/mL	0.5 micrograms/mL	1 micrograms/mL	1 micrograms/mL	0.5 micrograms/mL	0.5 micrograms/mL						MIC, K. pneumoniae ATCC BAA-2146 (K. pneumoniae; [5]): 1 micrograms/mL; MIC, A. baumannii ATCC BAA-747 (A. baumannii; [5]): 0.25 micrograms/mL; MIC, A. baumannii NCTC 13424 (A. baumannii; [5]): 0.25 micrograms/mL; MIC, E. coli NCTC 13441 (E. coli; [5]): 1 micrograms/mL; MIC, P. aeruginosa ATCC 27853 (P. aeruginosa; [5]): 0.5 micrograms/mL; MIC, P. aeruginosa CCUG 59347 (P. aeruginosa; [5]): 0.5 micrograms/mL
(trans-5-(isobutyl- piperidine)-3- carbonyl L-Ser- L-Dap-polymyxin B heptapeptide [Example D79]	8 micrograms/mL	>128 micrograms/mL	8 micrograms/mL	4 micrograms/mL	8 micrograms/mL	64 micrograms/mL	>128 micrograms/mL	8 micrograms/mL	128 micrograms/mL	128 micrograms/mL	32 micrograms/mL	8 micrograms/mL	16 micrograms/mL	16 micrograms/mL	8 micrograms/mL	0.06 micrograms/mL	0.06 micrograms/mL	0.125 micrograms/mL	0.125 micrograms/mL	0.25 micrograms/mL	MIC, K. pneumoniae ATCC BAA-2146 (K. pneumoniae; sole activity, Table 6C): 0.125 micrograms/mL; MIC, E. coli NCTC 13441 (E. coli; sole activity, Table 6C): 0.125 micrograms/mL; MIC, P. aeruginosa CCUG 59347 (P. aeruginosa; sole activity, Table 6C): 0.25 micrograms/mL
(trans-5-(isobutyl- piperidine)-3- carbonyl L-Thr- D-Dap-polymyxin B heptapeptide [Example D87]	0.25 micrograms/mL	64 micrograms/mL	1 micrograms/mL	1 micrograms/mL	4 micrograms/mL	8 micrograms/mL	8 micrograms/mL	0.5 micrograms/mL	4 micrograms/mL	32 micrograms/mL	2 micrograms/mL	2 micrograms/mL	2 micrograms/mL	0.5 micrograms/mL	1 micrograms/mL	0.06 micrograms/mL	0.03 micrograms/mL	0.03 micrograms/mL	0.03 micrograms/mL	0.25 micrograms/mL	MIC, P. aeruginosa CCUG 59347 (P. aeruginosa; sole activity, Table 6C): 1 micrograms/mL
(trans-5-(isobutyl- piperidine)-3- carbonyl L-Thr- D-Ser-polymyxin B heptapeptide [Example D82]		64 micrograms/mL	4 micrograms/mL	4 micrograms/mL	8 micrograms/mL	32 micrograms/mL	16 micrograms/mL	1 micrograms/mL	8 micrograms/mL	16 micrograms/mL	8 micrograms/mL	32 micrograms/mL	32 micrograms/mL	0.5 micrograms/mL	4 micrograms/mL	0.06 micrograms/mL	0.06 micrograms/mL	0.125 micrograms/mL	0.125 micrograms/mL	2 micrograms/mL	MIC, P. aeruginosa CCUG 59347 (P. aeruginosa; sole activity, Table 6C): 4 micrograms/mL
(trans-5-(isobutyl- piperidine)-3- carbonyl L-Thr-L- Dap-polymyxin E heptapeptide [Example D77]	2 micrograms/mL	128 micrograms/mL	4 micrograms/mL	1 micrograms/mL	4 micrograms/mL	32 micrograms/mL	16 micrograms/mL	4 micrograms/mL	16 micrograms/mL	64 micrograms/mL		4 micrograms/mL	4 micrograms/mL	4 micrograms/mL	2 micrograms/mL	0.125 micrograms/mL	0.06 micrograms/mL	0.06 micrograms/mL	0.06 micrograms/mL	0.5 micrograms/mL	MIC, K. pneumoniae ATCC BAA-2146 (K. pneumoniae; sole activity, Table 6C): 0.125 micrograms/mL; MIC, E. coli NCTC 13441 (E. coli; sole activity, Table 6C): 0.06 micrograms/mL; MIC, P. aeruginosa CCUG 59347 (P. aeruginosa; sole activity, Table 6C): 1 micrograms/mL
